Experiments:
[1] = test system: blackgrass; assay: Test B pre/postemergence blackgrass; type: in vivo, Alopecurus myosuroides
Method in brief: (§1)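 Herbicidal effect was estimated by eye on a ten-point control scale after plants spent twelve to sixteen days in a greenhouse following soil or foliar treatment. Foliar sprays targeted plants at one to four leaves; all doses were formulated in a non-phytotoxic solvent with surfactant.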

[2] = test system: cocklebur; assay: Test B pre/postemergence cocklebur; type: in vivo, Xanthium strumarium
Method in brief: as §1

[3] = test system: purple nutsedge; assay: Test B pre/postemergence purple nutsedge; type: in vivo, Cyperus rotundus
Method in brief: as §1

[4] = test system: pigweed; assay: Test B pre/postemergence pigweed; type: in vivo, Amaranthus retroflexus
Method in brief: as §1

[5] = test system: sugar beet; assay: Test B pre/postemergence sugar beet; type: in vivo, Beta vulgaris
Method in brief: as §1

[6] = test system: giant foxtail; assay: Test B pre/postemergence giant foxtail; type: in vivo, Setaria faberii
Method in brief: as §1

[7] = test system: smallflower flatsedge; assay: Test B flood test smallflower flatsedge; type: in vivo, Cyperus difformis
Method in brief: (§2)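 Flood test on plants grown to the 2-leaf stage; treated plants kept in greenhouse twelve to sixteen days, then visually rated against controls on a 0 (no effect) to 10 (complete control) scale.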

[8] = test system: soybean; assay: Test B pre/postemergence soybean; type: in vivo, Glycine max
Method in brief: as §1

[9] = test system: bamyardgrass; assay: Test B flood test barnyardgrass; type: in vivo, Echinochloa crus-galli
Method in brief: as §2

[10] = test system: crabgrass; assay: Test B pre/postemergence crabgrass; type: in vivo, Digitaria sanguinalis
Method in brief: as §1

[11] = test system: velvetleaf; assay: Test B pre/postemergence velvetleaf; type: in vivo, Abutilon theophrasti
Method in brief: as §1

[12] = test system: surinam grass; assay: Test B pre/postemergence surinam grass; type: in vivo, Brachiaria decumbens
Method in brief: as §1

[13] = test system: rape; assay: Test B pre/postemergence rape; type: in vivo, Brassica napus
Method in brief: as §1

[14] = test system: wild oat; assay: Test B pre/postemergence wild oat; type: in vivo, Avena fatua
Method in brief: as §1

[15] = test system: corn; assay: Test B pre/postemergence corn; type: in vivo, Zea mays
Method in brief: as §1

[16] = test system: morningglory; assay: Test B pre/postemergence morningglory; type: in vivo, Ipomoea hederacea
Method in brief: as §1

[17] = Postemergence, Rate 62 g/ha, scale 0 to 10, 0 is no effect, 10 is complete control
[18] = Postemergence, Rate 250 g/ha, scale 0 to 10, 0 no effect, 10 complete control
[19] = Preemergence, Rate 31 g/ha, visual rating, scale 0 to 10 (0 no effect, 10 complete control)
[20] = Preemergence, Rate 62 g/ha, scale 0 to 10, 0 is no effect, 10 is complete control
[21] = Preemergence, Rate 125 g/ha, scale 0 to 10 (0 no effect, 10 complete control)
[22] = Preemergence, Rate 250 g/ha, scale of 0 to 10 where 0 is no effect and 10 is complete control
[23] = Rate 31 g/ha, Postemergence, scale 0 to 10
[24] = Rate 125 g/ha, Postemergence, scale 0 to 10, 0 no effect, 10 complete control
[25] = Rate 125 g/ha, Postemergence section (flood test species), scale 0 to 10, 0 no effect, 10 complete control
[26] = flood test, listed under Postemergence, Rate 250 g/ha, scale 0 to 10, 0 no effect, 10 complete control

## CCN(C(=O)n1oc(=O)n(-c2ccccc2OC)c1=O)C1CCCCC1 [Compound 29]
[1]; [17]
  Blackgrass plant response rating: 0
[1]; [18]
  Blackgrass plant response rating: 0
[1]; [19]
  Blackgrass plant response rating: 0
[1]; [20]
  Plant response rating, Blackgrass: 0
[1]; [21]
  Plant response rating, Blackgrass: 0
[1]; [22]
  Plant response rating, Blackgrass: 2
[1]; [23]
  Blackgrass plant response rating: 0
[1]; [24]
  Blackgrass plant response rating: 0
[2]; [17]
  Cocklebur plant response rating: 0
[2]; [18]
  Cocklebur plant response rating: 0
[2]; [19]
  Cocklebur plant response rating: 0
[2]; [20]
  Plant response rating, Cocklebur: 0
[2]; [21]
  Plant response rating, Cocklebur: 0
[2]; [22]
  Plant response rating, Cocklebur: 0
[2]; [23]
  Cocklebur plant response rating: 0
[2]; [24]
  Cocklebur plant response rating: 0
[3]; [17]
  Nutsedge plant response rating: 0
[3]; [18]
  Nutsedge plant response rating: 0
[3]; [19]
  Nutsedge plant response rating: 0
[3]; [20]
  Plant response rating, Nutsedge: 0
[3]; [21]
  Plant response rating, Nutsedge: 0
[3]; [22]
  Plant response rating, Nutsedge: 0
[3]; [23]
  Nutsedge plant response rating: 0
[3]; [24]
  Nutsedge plant response rating: 0
[4]; [17]
  Redroot pigweed plant response rating: 0
[4]; [18]
  Redroot pigweed plant response rating: 0
[4]; [19]
  Redroot pigweed plant response rating: 0
[4]; [20]
  Plant response rating, Redroot pigweed: 0
[4]; [21]
  Plant response rating, Redroot pigweed: 0
[4]; [22]
  Plant response rating, Redroot pigweed: 5
[4]; [23]
  Redroot pigweed plant response rating: 0
[4]; [24]
  Redroot pigweed plant response rating: 0
[5]; [17]
  Sugarbeets plant response rating: 0
[5]; [18]
  Sugarbeets plant response rating: 0
[5]; [19]
  Sugarbeets plant response rating: 0
[5]; [20]
  Plant response rating, Sugarbeets: 0
[5]; [21]
  Plant response rating, Sugarbeets: 0
[5]; [22]
  Plant response rating, Sugarbeets: 0
[5]; [24]
  Sugarbeets plant response rating: 0
[6]; [17]
  Giant foxtail plant response rating: 0
[6]; [18]
  Giant foxtail plant response rating: 0
[6]; [19]
  Giant foxtail plant response rating: 0
[6]; [20]
  Plant response rating, Giant foxtail: 0
[6]; [21]
  Plant response rating, Giant foxtail: 1
[6]; [22]
  Plant response rating, Giant foxtail: 3
[6]; [23]
  Giant foxtail plant response rating: 0
[6]; [24]
  Giant foxtail plant response rating: 0
[7]; [17]
  S. Flatsedge plant response rating: 0
[7]; [25]
  S. Flatsedge plant response rating: 0
[7]; [26]
  S. Flatsedge plant response rating: 0
[8]; [17]
  Soybean plant response rating: 2
[8]; [18]
  Soybean plant response rating: 2
[8]; [19]
  Soybean plant response rating: 0
[8]; [20]
  Plant response rating, Soybean: 0
[8]; [21]
  Plant response rating, Soybean: 0
[8]; [22]
  Plant response rating, Soybean: 0
[8]; [24]
  Soybean plant response rating: 2
[9]; [17]
  Barnyardgrass plant response rating: 0
[9]; [25]
  Barnyardgrass plant response rating: 0
[9]; Rate 500 g/ha, Postemergence section of Table B, 0 to 10 scale (0 no effect, 10 complete control)
  Barnyardgrass plant response rating: 0
[9]; [26]
  Barnyardgrass plant response rating: 0
[10]; [17]
  Crabgrass plant response rating: 0
[10]; [18]
  Crabgrass plant response rating: 0
[10]; [19]
  Crabgrass plant response rating: 0
[10]; [20]
  Plant response rating, Crabgrass: 3
[10]; [21]
  Plant response rating, Crabgrass: 4
[10]; [22]
  Plant response rating, Crabgrass: 7
[10]; [23]
  Crabgrass plant response rating: 0
[10]; [24]
  Crabgrass plant response rating: 0
[11]; [17]
  Velvetleaf plant response rating: 0
[11]; [18]
  Velvetleaf plant response rating: 0
[11]; [19]
  Velvetleaf plant response rating: 0
[11]; [20]
  Plant response rating, Velvetleaf: 0
[11]; [21]
  Plant response rating, Velvetleaf: 0
[11]; [22]
  Plant response rating, Velvetleaf: 0
[11]; [24]
  Velvetleaf plant response rating: 0
[12]; [17]
  B. signalgrass plant response rating: 0
[12]; [18]
  B. signalgrass plant response rating: 0
[12]; [19]
  B. signalgrass plant response rating: 0
[12]; [20]
  Plant response rating, B. signalgrass: 0
[12]; [21]
  Plant response rating, B. signalgrass: 0
[12]; [22]
  Plant response rating, B. signalgrass: 0
[12]; [23]
  B. signalgrass plant response rating: 0
[12]; [24]
  B. signalgrass plant response rating: 0
[13]; [17]
  Rape plant response rating: 0
[13]; [18]
  Rape plant response rating: 0
[13]; [19]
  Rape plant response rating: 0
[13]; [20]
  Plant response rating, Rape: 0
[13]; [21]
  Plant response rating, Rape: 0
[13]; [22]
  Plant response rating, Rape: 0
[13]; [23]
  Rape plant response rating: 0
[13]; [24]
  Rape plant response rating: 0
[14]; [17]
  Wild oats plant response rating: 0
[14]; [18]
  Wild oats plant response rating: 0
[14]; [19]
  Wild oats plant response rating: 0
[14]; [21]
  Plant response rating, Wild oats: 0
[14]; [22]
  Plant response rating, Wild oats: 0
[14]; [24]
  Wild oats plant response rating: 0
[15]; [17]
  Corn plant response rating: 0
[15]; [18]
  Corn plant response rating: 0
[15]; [19]
  Corn plant response rating: 0
[15]; [20]
  Plant response rating, Corn: 0
[15]; [21]
  Plant response rating, Corn: 0
[15]; [22]
  Plant response rating, Corn: 0
[15]; [23]
  Corn plant response rating: 0
[15]; [24]
  Corn plant response rating: 0
[16]; [17]
  Morningglory plant response rating: 0
[16]; [18]
  Morningglory plant response rating: 0
[16]; [19]
  Morningglory plant response rating: 0
[16]; [20]
  Plant response rating, Morningglory: 0
[16]; [21]
  Plant response rating, Morningglory: 0
[16]; [22]
  Plant response rating, Morningglory: 0
[16]; [23]
  Morningglory plant response rating: 0
[16]; [24]
  Morningglory plant response rating: 0
